Reference: patent US10457703B2, “Bile acid derivatives as FXR/TGR5 agonists and methods of use thereof” (ENANTA PHARMACEUTICALS, INC., priority 2015, dated 2019)

Target: human FXR (NR1H4) (Homo sapiens (Human), UniProt Q96RI1)
Experiment: Human FXR (NR1H4) Assay (Gal4 promoter driven luciferase reporter, Indigo Bioscience kit);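 for Efficacy (%): 100% equals the efficacy of CDCA; efficacy normalized to CDCA set as 100%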
Assay type: cell-based
Details: for EC50: Human FXR (NR1H4) Assay, potency ranges; for Emax: read-out: Efficacy (%)
Method in brief: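 CHO reporter cells expressing human FXR with an FXR-responsive luciferase reporter, treated with compound doses at 0.2% DMSO. Incubation lasted 22 h at 37 °C before luciferase detection reagent was added. Luminescence was then read.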

human FXR (NR1H4), sequence (Q96RI1 whole entry, the tested form may be a part): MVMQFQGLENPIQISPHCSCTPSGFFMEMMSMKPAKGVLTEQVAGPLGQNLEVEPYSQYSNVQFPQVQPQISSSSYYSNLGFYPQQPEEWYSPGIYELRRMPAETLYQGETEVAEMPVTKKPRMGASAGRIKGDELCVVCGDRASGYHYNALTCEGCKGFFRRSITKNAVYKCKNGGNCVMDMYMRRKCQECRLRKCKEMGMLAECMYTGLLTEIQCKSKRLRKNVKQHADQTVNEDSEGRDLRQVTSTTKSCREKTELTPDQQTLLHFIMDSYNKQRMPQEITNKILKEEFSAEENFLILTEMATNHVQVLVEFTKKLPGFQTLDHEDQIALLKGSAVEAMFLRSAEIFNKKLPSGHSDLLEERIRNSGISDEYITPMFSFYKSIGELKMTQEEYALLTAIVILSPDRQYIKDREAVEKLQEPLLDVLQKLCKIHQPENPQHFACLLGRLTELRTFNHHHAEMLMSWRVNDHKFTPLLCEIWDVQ

| Structure (SMILES) | EC50 | Emax |
| --- | --- | --- |
| CC[C@H]1[C@@H](O)[C@@H]2[C@H](CC[C@]3(C)[C@@H]([C@H](C)CCOC(=O)NCC(=O)O)CC[C@@H]23)[C@@]2(C)CC[C@@H](O)C[C@@H]12 [Example 157] | 1000 to 10000 nM | 178% |
| CC[C@H]1[C@@H](O)[C@@H]2[C@H](CC[C@]3(C)[C@@H]([C@H](C)CCOC(=O)NCc4ccc(O)cc4)CC[C@@H]23)[C@@]2(C)CC[C@@H](O)C[C@@H]12 [Example 158] | 100 to 1000 nM | 240% |
| CC[C@H]1[C@@H](O)[C@@H]2[C@H](CC[C@]3(C)[C@@H]([C@H](C)CCOC(=O)NCc4ccc(C(=O)O)cc4)CC[C@@H]23)[C@@]2(C)CC[C@@H](O)C[C@@H]12 [Example 159] | 100 to 1000 nM | 221% |
| CC[C@H]1[C@@H](O)[C@@H]2[C@H](CC[C@]3(C)[C@@H]([C@H](C)CCOC(=O)N4CCOCC4)CC[C@@H]23)[C@@]2(C)CC[C@@H](O)C[C@@H]12 [Example 160] | 100 to 1000 nM | 142% |
| CC[C@H]1[C@@H](O)[C@@H]2[C@H](CC[C@]3(C)[C@@H]([C@H](C)CCOC(=O)N4CCC(Cc5ccccc5)CC4)CC[C@@H]23)[C@@]2(C)CC[C@@H](O)C[C@@H]12 [Example 161] | 100 to 1000 nM | 226% |
| CC[C@H]1[C@@H](O)[C@@H]2[C@H](CC[C@]3(C)[C@@H]([C@H](C)CCOC(=O)N4CCC4)CC[C@@H]23)[C@@]2(C)CC[C@@H](O)C[C@@H]12 [Example 162] | 100 to 1000 nM | 277% |
| CC[C@H]1[C@@H](O)[C@@H]2[C@H](CC[C@]3(C)[C@@H]([C@H](C)CCOC(=O)N(CC)CC)CC[C@@H]23)[C@@]2(C)CC[C@@H](O)C[C@@H]12 [Example 163] | 100 to 1000 nM | 266% |
| CC[C@H]1[C@@H](O)[C@@H]2[C@H](CC[C@]3(C)[C@@H]([C@H](C)CCOC(=O)N(C)OC)CC[C@@H]23)[C@@]2(C)CC[C@@H](O)C[C@@H]12 [Example 164] | 100 to 1000 nM | 191% |
| CC[C@H]1[C@@H](O)[C@@H]2[C@H](CC[C@]3(C)[C@@H]([C@H](C)CCCOC(=O)N4CCCCC4)CC[C@@H]23)[C@@]2(C)CC[C@@H](O)C[C@@H]12 [Example 165] | 1000 to 10000 nM | 158% |
| CC[C@H]1[C@@H](O)[C@@H]2[C@H](CC[C@]3(C)[C@@H]([C@H](C)CCOC(=O)Nc4ccc(C(C)(C)C)cc4)CC[C@@H]23)[C@@]2(C)CC[C@@H](O)C[C@@H]12 [Example 166] | 1000 to 10000 nM | 30% |
| CC[C@H]1[C@@H](O)[C@@H]2[C@H](CC[C@]3(C)[C@@H]([C@H](C)CCOC(=O)NC4CCS(=O)(=O)CC4)CC[C@@H]23)[C@@]2(C)CC[C@@H](O)C[C@@H]12 [Example 167] | 100 to 1000 nM | 321% |
| CC[C@H]1[C@@H](O)[C@@H]2[C@H](CC[C@]3(C)[C@@H]([C@H](C)CCOC(=O)N[C@H]4CCCC[C@@H]4O)CC[C@@H]23)[C@@]2(C)CC[C@@H](O)C[C@@H]12 [Example 168] | 100 to 1000 nM | 302% |
| CC[C@H]1[C@@H](O)[C@@H]2[C@H](CC[C@]3(C)[C@@H]([C@H](C)CCOC(=O)N4CCC(O)CC4)CC[C@@H]23)[C@@]2(C)CC[C@@H](O)C[C@@H]12 [Example 169] | 100 to 1000 nM | 257% |
| CC[C@H]1[C@@H](O)[C@@H]2[C@H](CC[C@]3(C)[C@@H]([C@H](C)CCOC(=O)N4CCN(c5ccccc5OC)CC4)CC[C@@H]23)[C@@]2(C)CC[C@@H](O)C[C@@H]12 [Example 170] | < 100 nM | 283% |
| CC[C@H]1[C@@H](O)[C@@H]2[C@H](CC[C@]3(C)[C@@H]([C@H](C)CCOC(=O)N4CCC(C(N)=O)CC4)CC[C@@H]23)[C@@]2(C)CC[C@@H](O)C[C@@H]12 [Example 171] | 100 to 1000 nM | 179% |
| CC[C@H]1[C@@H](O)[C@@H]2[C@H](CC[C@]3(C)[C@@H]([C@H](C)CCOC(=O)N[C@H](C)CCO)CC[C@@H]23)[C@@]2(C)CC[C@@H](O)C[C@@H]12 [Example 172] | 100 to 1000 nM | 201% |
| CC[C@H]1[C@@H](O)[C@@H]2[C@H](CC[C@]3(C)[C@@H]([C@H](C)CCOC(=O)N4CCc5sccc5C4)CC[C@@H]23)[C@@]2(C)CC[C@@H](O)C[C@@H]12 [Example 173] | 100 to 1000 nM | 209% |
| CC[C@H]1[C@@H](O)[C@@H]2[C@H](CC[C@]3(C)[C@@H]([C@H](C)CCOC(=O)NCCCCCO)CC[C@@H]23)[C@@]2(C)CC[C@@H](O)C[C@@H]12 [Example 174] | < 100 nM | 228% |
| CC[C@H]1[C@@H](O)[C@@H]2[C@H](CC[C@]3(C)[C@@H]([C@H](C)CCOC(=O)N[C@@H](C)C4CC4)CC[C@@H]23)[C@@]2(C)CC[C@@H](O)C[C@@H]12 [Example 175] | 100 to 1000 nM | 210% |
| CC[C@H]1[C@@H](O)[C@@H]2[C@H](CC[C@]3(C)[C@@H]([C@H](C)CCOC(=O)NC(C(C)C)C(C)C)CC[C@@H]23)[C@@]2(C)CC[C@@H](O)C[C@@H]12 [Example 176] | 1000 to 10000 nM | 368% |

| Structure (SMILES) | EC50 | Emax |
| --- | --- | --- |
| CC[C@H]1[C@@H](O)[C@@H]2[C@H](CC[C@]3(C)[C@@H]([C@H](C)CCOC(=O)NCCC4CC4)CC[C@@H]23)[C@@]2(C)CC[C@@H](O)C[C@@H]12 [Example 177] | 100 to 1000 nM | 460% |
| CC[C@H]1[C@@H](O)[C@@H]2[C@H](CC[C@]3(C)[C@@H]([C@H](C)CCOC(=O)N4CCC(N5CCCCC5)CC4)CC[C@@H]23)[C@@]2(C)CC[C@@H](O)C[C@@H]12 [Example 178] | 100 to 1000 nM | 196% |
| CC[C@H]1[C@@H](O)[C@@H]2[C@H](CC[C@]3(C)[C@@H]([C@H](C)CCOC(=O)N(CCO)CCO)CC[C@@H]23)[C@@]2(C)CC[C@@H](O)C[C@@H]12 [Example 179] | 100 to 1000 nM | 333% |
| CC[C@H]1[C@@H](O)[C@@H]2[C@H](CC[C@]3(C)[C@@H]([C@H](C)CCOC(=O)N4CCCCC4CO)CC[C@@H]23)[C@@]2(C)CC[C@@H](O)C[C@@H]12 (stereo partly drawn) [Example 180] | 100 to 1000 nM | 390% |
| CC[C@H]1[C@@H](O)[C@@H]2[C@H](CC[C@]3(C)[C@@H]([C@H](C)CCOC(=O)N4CC[C@H](O)C4)CC[C@@H]23)[C@@]2(C)CC[C@@H](O)C[C@@H]12 [Example 181] | < 100 nM | 382% |
| CC[C@H]1[C@@H](O)[C@@H]2[C@H](CC[C@]3(C)[C@@H]([C@H](C)CCOC(=O)N4C[C@@H](C)O[C@@H](C)C4)CC[C@@H]23)[C@@]2(C)CC[C@@H](O)C[C@@H]12 [Example 182] | 100 to 1000 nM | 419% |
| CC[C@H]1[C@@H](O)[C@@H]2[C@H](CC[C@]3(C)[C@@H]([C@H](C)CCOC(=O)N4CCC(CO)(CCl)CC4)CC[C@@H]23)[C@@]2(C)CC[C@@H](O)C[C@@H]12 [Example 183] | < 100 nM | 451% |
| CC[C@H]1[C@@H](O)[C@@H]2[C@H](CC[C@]3(C)[C@@H]([C@H](C)CCOC(=O)N4CCCC4c4cccc(Cl)c4)CC[C@@H]23)[C@@]2(C)CC[C@@H](O)C[C@@H]12 (stereo partly drawn) [Example 184] | 1000 to 10000 nM | 213% |
| CC[C@H]1[C@@H](O)[C@@H]2[C@H](CC[C@]3(C)[C@@H]([C@H](C)CCOC(=O)N[C@H]4CC[C@H](O)CC4)CC[C@@H]23)[C@@]2(C)CC[C@@H](O)C[C@@H]12 [Example 185] | 100 to 1000 nM | 392% |
| CC[C@H]1[C@@H](O)[C@@H]2[C@H](CC[C@]3(C)[C@@H]([C@H](C)CCOC(=O)NCCc4ccccn4)CC[C@@H]23)[C@@]2(C)CC[C@@H](O)C[C@@H]12 [Example 186] | 100 to 1000 nM | 373% |
| CC[C@H]1[C@@H](O)[C@@H]2[C@H](CC[C@]3(C)[C@@H]([C@H](C)CCOC(=O)NCCCC(=O)OC)CC[C@@H]23)[C@@]2(C)CC[C@@H](O)C[C@@H]12 [Example 187] | 100 to 1000 nM | 421% |
| CC[C@H]1[C@@H](O)[C@@H]2[C@H](CC[C@]3(C)[C@@H]([C@H](C)CCOC(=O)NCC4CCCCC4)CC[C@@H]23)[C@@]2(C)CC[C@@H](O)C[C@@H]12 [Example 188] | 100 to 1000 nM | 459% |
| CC[C@H]1[C@@H](O)[C@@H]2[C@H](CC[C@]3(C)[C@@H]([C@H](C)CCOC(=O)NCc4ccc(C(C)(C)C)cc4)CC[C@@H]23)[C@@]2(C)CC[C@@H](O)C[C@@H]12 [Example 189] | 1000 to 10000 nM | 215% |
| CC[C@H]1[C@@H](O)[C@@H]2[C@H](CC[C@]3(C)[C@@H]([C@H](C)CCOC(=O)NCC(C)(C)C)CC[C@@H]23)[C@@]2(C)CC[C@@H](O)C[C@@H]12 [Example 190] | 100 to 1000 nM | 410% |
| CC[C@H]1[C@@H](O)[C@@H]2[C@H](CC[C@]3(C)[C@@H]([C@H](C)CCOC(=O)Nc4ccccc4)CC[C@@H]23)[C@@]2(C)CC[C@@H](O)C[C@@H]12 [Example 191] | 1000 to 10000 nM | 330% |
| CC[C@H]1[C@@H](O)[C@@H]2[C@H](CC[C@]3(C)[C@@H]([C@H](C)CCOC(=O)NC(C)(C)C)CC[C@@H]23)[C@@]2(C)CC[C@@H](O)C[C@@H]12 [Example 192] | 1000 to 10000 nM | 186% |
| CC[C@H]1[C@@H](O)[C@@H]2[C@H](CC[C@]3(C)[C@@H]([C@H](C)CCOC(=O)Nc4ccc(F)cc4Cl)CC[C@@H]23)[C@@]2(C)CC[C@@H](O)C[C@@H]12 [Example 193] | 1000 to 10000 nM | 179% |
| CC[C@H]1[C@@H](O)[C@@H]2[C@H](CC[C@]3(C)[C@@H]([C@H](C)CCOC(=O)Nc4cncc(Cl)c4)CC[C@@H]23)[C@@]2(C)CC[C@@H](O)C[C@@H]12 [Example 194] | 1000 to 10000 nM | 170% |
| CC[C@H]1[C@@H](O)[C@@H]2[C@H](CC[C@]3(C)[C@@H]([C@H](C)CCOC(=O)NC4CCCC4O)CC[C@@H]23)[C@@]2(C)CC[C@@H](O)C[C@@H]12 (stereo partly drawn) [Example 195] | < 100 nM | 288% |
